Experimental data: US20230339991A1, “HYPOXIA-ACTIVATED DNA ALKYLATING AGENT AND MEDICAL USE THEREOF” (ASCENTAWITS PHARMACEUTICALS, LTD., priority 2020, published 2023)
Where “and” joins values, the source holds several entries; their conditions need not be identical. Identical values can stand only once. Like-named read-outs stand apart in the source and are kept apart here.

How the values were obtained:
[1] = test system: HuPrime model GA6201 human gastric cancer subcutaneous transplantation PDX tumor; assay: GA6201 human gastric cancer subcutaneous PDX model; format: in vivo, BALB/c nude mice; conditions: for tumor volume: Group 06, 5-50 mg/kg regimen
HPAF-II = assay: Cytotoxicity, pancreatic cancer PA cells HPAF-II; format: cell-based; conditions: Homo sapiens
Description: Compounds were exposed at various concentrations for 72 hours, followed by a wash step. Fresh medium was added for growth. The cell was stained to determine the cell survival rate and compared with controls treated with medium only.
In particular, exponentially grown cells were inoculated in 96-well plates at a density of 2×10^3 cells/100 μl/well and incubated for 24 hours at 37° C. and under the conditions of 5% CO2, 95% air and 100% relative humidity before addition of 99 μl of culture solution. The compounds were dissolved in 100% DMSO at 200 times of the desired final test concentration. When the drug was added, an aliquot of 1 μl of the compound at the specified concentration was added to microwells already containing 199 μl of medium to obtain the reported final drug concentration. After adding the drug, plates were incubated for an additional 72 hours at 37° C., 5% CO2, 95% air and 100% relative humidity. The cell assay plate was left to balance for 30 minutes at room temperature and 100 μL of medium was removed from per well. 100 μl CTG reagent (CelltiterGlo kit) was added into each well. The plate was placed on a fast shaker and shaked for 2 min, and kept in dark at room temperature for 30 min. The chemiluminescence signal value was read by Envision instrument. […]

[2] = Blood-brain barrier experiment, brain and plasma concentrations after IV dosing; format: in vivo, CD-1 mice; conditions: CD-1, mouse
[3] = test system: human lung cancer NCI-H460 subcutaneous xenograft; assay: Human lung cancer NCI-H460 subcutaneous xenograft model, compounds B and C; format: in vivo, BALB/c nude mice; conditions: for relative tumor inhibition rate TGI (%): QD×5 per cycle, 2 cycles, Day 28
Description: BALB/c nude mice were subcutaneously inoculated with human lung cancer NCI-H460 cells to establish human lung cancer subcutaneous transplantation tumor model. […] The positive drug Irinotecan 40 mg/kg group was administered by intraperitoneal injection once every 4 days for 7 times, and observed for 4 days.

PANC1 cells = assay: Clonogenic assay, PANC1; format: cell-based, human; conditions: Homo sapiens, PANC-1, 3 h
Description: (§1) The following PSN-1 cells, PANC1 cells, MiaPaCa-2 cells, H460 cells, DLD-1 WT (wild type) cells, DLD-1 BRCA2 KO (BRCA2 deletion) cells were seeded in 10 cm vitreous cell culture plates at specific cell numbers and incubated for 2 days at 37° C. and under the conditions of 5% CO2, 95% air and 100% relative humidity. On day 3, test compounds TH302 or AST-002-P2 at the specific concentrations were added to the cells, and incubated for 3 hours together with the cells under normoxic (21% O2) and hypoxic conditions (<0.01% O2), respectively. After cells were stimulated by compounds, the cells were washed once with 1×PBS and digested into single cells with pancreatic enzymes for cell counting. The above cells in specific cell numbers were reseeded in a new culture plate and cultured for 7 days to perform single cell colony formation. When single cells in compound culture plates stimulated under normoxic conditions proliferated to about 50 cells, the cultures were removed and stained with 0.5% crystal violet for 40 minutes. After staining, cells were counted for colonies using Colony Counter (VWR) and the IC90 was calculated.

[4] = Blood-brain barrier experiment, brain and plasma concentrations after IV dosing; format: in vivo, CD-1 mice; conditions: for half-life: read-out: T½ (converted)
Description: Three CD-1 […] were administered 1 mg/kg of the test compound intravenously at each time point. Blood and brain tissue were collected at 5 min, 15 min, 1 h, 2 h, 4 h and 8 h after administration.

MiaPaCa-2 cells = assay: Clonogenic assay, MiaPaCa-2; format: cell-based, human; conditions: for IC90: Homo sapiens, MIA PaCa-2, 3 h
Description: as §1

[5] = 21% O2, read-out: IC90 Normoxia
[6] = <0.01% O2, read-out: IC90 Hypoxia
[7] = CD-1, mouse, plasma, IV 1 mg/kg
[8] = IV 1 mg/kg, 0.083 h, single animals, 1 mg/kg
[9] = IV 1 mg/kg, 0.25 h, single animals, 1 mg/kg
[10] = IV 1 mg/kg, 1 h, single animals, 1 mg/kg
[11] = IV 1 mg/kg, 2 h, single animals, 1 mg/kg
[12] = IV 1 mg/kg, 4 h, single animals
[13] = IV 1 mg/kg, 8 h, single animals

Question: Which “effect of tumor growth inhibition compared with isocyclophosphamide” value ([1]; GA6201 PDX) does the source give for O=[N+]([O-])c1ccc(C(OP(=O)(N2CC2)N2CC2)C(F)(F)F)c2ccccc12 (racemic) [Compound A] here?
Answer: significant advantages

Question: What about the tumor volume ([1]; day 7) of the same compound?
Answer: 123.19 mm^3

Question: What about the tumor volume ([1]; day 17) of the same compound?
Answer: 219.91 mm^3

Question: And the tumor volume ([1]; day 21)?
Answer: 246.57 mm^3

Question: What about the tumor volume ([1]; day 24) of the same compound?
Answer: 271.72 mm^3

Question: And the tumor volume ([1]; day 31)?
Answer: 270.68 mm^3

Question: And the tumor volume ([1]; day 35)?
Answer: 299.31 mm^3

Question: And the tumor volume ([1]; day 38)?
Answer: 277.17 mm^3

Question: What about the tumor volume ([1]; day 45) of the same compound?
Answer: 342.08 mm^3

Question: What about the tumor volume ([1]; day 49) of the same compound?
Answer: 287.47 mm^3

Question: And the IC50 (HPAF-II)?
Answer: 26.1 µM

Question: Which Kp at 0.25 h ([2]; brain/plasma, iv, 1 mg/kg, 0.25 h, read-out: Mean Ratio (Brain/Plasma)) does the source give for O=[N+]([O-])c1ccc([C@@H](OP(=O)(N2CC2)N2CC2)C(F)(F)F)c2ccccc12 (single isomer, unassigned) [Compound C] here?
Answer: 0.86

Question: And the Kp at 2 h ([2]; brain/plasma, iv, 1 mg/kg, 2 h, single animals, read-out: Ratio (Brain/Plasma))?
Answer: 1.35

Question: What about the Cmax ([2]; brain tissue, IV 1 mg/kg) of the same compound?
Answer: 445 ng/g

Question: And the Tmax ([2]; brain tissue, IV 1 mg/kg)?
Answer: 4.8 min

Question: What about the AUC ([2]; plasma, IV 1 mg/kg) of the same compound?
Answer: 190 ng·h/mL

Question: And the “relative tumor inhibition rate TGI (%)” value ([3]; 20 mg/kg i.p.)?
Answer: 90.56%

Question: And the “relative tumor inhibition rate TGI (%)” value ([3]; 40 mg/kg i.p.)?
Answer: 94.33%

Question: What about the “complete cure rate on tumors” value ([3]; group 6, 20 mg/kg, Day35) of the same compound?
Answer: 20%

Question: And the IC90 (PANC1 cells; [5])?
Answer: > 10 µM

Question: And the IC90 (PANC1 cells; [6])?
Answer: > 1 µM

Question: What about the concentration at 0.083 h ([4]; CD-1, mouse, brain, iv, 1 mg/kg, IV 1 mg/kg, 0.083 h, single animals, read-out: Brain concentration) of the same compound?
Answer: 415 ng/g

Question: What about the concentration at 0.25 h ([4]; CD-1, mouse, brain, iv, 1 mg/kg, IV 1 mg/kg, 0.25 h, single animals, read-out: Brain concentration) of the same compound?
Answer: 146 ng/g

Question: And the concentration at 1 h ([4]; CD-1, mouse, brain, iv, 1 mg/kg, IV 1 mg/kg, 1 h, single animals, read-out: Brain concentration)?
Answer: 28.6 ng/g

Question: What about the Kp at 0.083 h ([4]; CD-1, mouse, brain/plasma, iv, 1 mg/kg, IV 1 mg/kg, 0.083 h, read-out: Mean Ratio (Brain/Plasma)) of the same compound?
Answer: 1.07

Question: What about the Kp at 0.083 h ([4]; CD-1, mouse, brain/plasma, iv, 1 mg/kg, IV 1 mg/kg, 0.083 h, single animals, read-out: Ratio (Brain/Plasma)) of the same compound?
Answer: 0.99

Question: And the Kp at 0.25 h ([4]; CD-1, mouse, brain/plasma, iv, 1 mg/kg, IV 1 mg/kg, 0.25 h, single animals, read-out: Ratio (Brain/Plasma))?
Answer: 0.82

Question: And the Kp at 1 h ([4]; CD-1, mouse, brain/plasma, iv, 1 mg/kg, IV 1 mg/kg, 1 h, read-out: Mean Ratio (Brain/Plasma))?
Answer: 0.54

Question: What about the Kp at 1 h ([4]; CD-1, mouse, brain/plasma, iv, 1 mg/kg, IV 1 mg/kg, 1 h, single animals, read-out: Ratio (Brain/Plasma)) of the same compound?
Answer: 0.52

Question: And the Kp at 2 h ([4]; CD-1, mouse, brain/plasma, iv, 1 mg/kg, IV 1 mg/kg, 2 h, read-out: Mean Ratio (Brain/Plasma))?
Answer: 1.11

Question: And the Kp ([4]; CD-1, mouse, brain/plasma, iv, 1 mg/kg, IV 1 mg/kg, read-out: AUClnf Ratio (Brain/Plasma))?
Answer: 0.73

Question: What about the concentration at 0.083 h ([4]; CD-1, mouse, plasma, iv, 1 mg/kg, IV 1 mg/kg, 0.083 h, single animals, read-out: Plasma concentration) of the same compound?
Answer: 417 ng/mL

Question: And the concentration at 0.25 h ([4]; CD-1, mouse, plasma, iv, 1 mg/kg, IV 1 mg/kg, 0.25 h, single animals, read-out: Plasma concentration)?
Answer: 179 ng/mL

Question: What about the half-life ([4]; CD-1, mouse, brain tissue, IV 1 mg/kg) of the same compound?
Answer: 21 min

Question: What about the AUC(0-t) [4, 7] of the same compound?
Answer: 188 ng·h/mL

Question: What about the C0 [4, 7] of the same compound?
Answer: 694 ng/mL

Question: What about the half-life [4, 7] of the same compound?
Answer: 18 min

Question: And the Brain concentration [4, 8]?
Answer: 541.99 ng/g and 377.29 ng/g

Question: And the Plasma concentration [4, 8]?
Answer: 390.41 ng/mL and 456.85 ng/mL

Question: What about the “Ratio (Brain/Plasma)” value [4, 8] of the same compound?
Answer: 1.39 and 0.83

Question: And the Brain concentration [4, 9]?
Answer: 131.63 ng/g and 120.75 ng/g

Question: And the Plasma concentration [4, 9]?
Answer: 132.02 ng/mL and 154.92 ng/mL

Question: What about the “Ratio (Brain/Plasma)” value [4, 9] of the same compound?
Answer: 1.00 and 0.78

Question: What about the Brain concentration [4, 10] of the same compound?
Answer: 18.01 ng/g and 15.01 ng/g

Question: What about the Plasma concentration [4, 10] of the same compound?
Answer: 54.81 ng/mL and 25.61 ng/mL and 37.23 ng/mL

Question: And the “Ratio (Brain/Plasma)” value [4, 10]?
Answer: 0.70 and 0.40

Question: What about the Brain concentration [4, 11] of the same compound?
Answer: 8.31 ng/g and 1.90 ng/g and BLOQ

Question: And the Plasma concentration [4, 11]?
Answer: 4.69 ng/mL and 2.16 ng/mL and 1.64 ng/mL

Question: What about the “Ratio (Brain/Plasma)” value [4, 11] of the same compound?
Answer: 0.88

Question: And the Brain concentration [4, 12]?
Answer: BLOQ

Question: And the Plasma concentration [4, 12]?
Answer: BLOQ

Question: What about the Brain concentration [4, 13] of the same compound?
Answer: BLOQ

Question: What about the Plasma concentration [4, 13] of the same compound?
Answer: BLOQ

Question: And the AUClast ([4]; brain tissue, IV 1 mg/kg)?
Answer: 136.59 ng·h/g

Question: What about the AUClnf ([4]; brain tissue, IV 1 mg/kg) of the same compound?
Answer: 138.68 ng·h/g

Question: What about the MRTlnf_obs ([4]; brain tissue, IV 1 mg/kg) of the same compound?
Answer: 20.4 min

Question: What about the blood-brain barrier penetration ([4]; detected in brain tissue) of the same compound?
Answer: can penetrate the blood-brain barrier

Question: And the Cl_obs ([4]; plasma, IV 1 mg/kg)?
Answer: 87.92 mL/min/kg

Question: And the MRTlnf_obs ([4]; plasma, IV 1 mg/kg)?
Answer: 19.8 min

Question: What about the Vss_obs ([4]; plasma, IV 1 mg/kg) of the same compound?
Answer: 1.73 L/kg

Question: What about the IC90 (MiaPaCa-2 cells; [5]) of the same compound?
Answer: > 10 µM

Question: What about the IC90 (MiaPaCa-2 cells; [6]) of the same compound?
Answer: 0.159 µM

Question: And the HCR (MiaPaCa-2 cells; IC90 ratio normoxic/N2)?
Answer: >63

Question: And the HCR (MiaPaCa-2 cells; IC90 ratio normoxic/N2, listed as compound C)?
Answer: > 63
